Earlier results on 3 compounds are cited in US12156872B2, “Combination therapies for treating cancer” (TESARO, Inc., priority 2017, dated 2024).

Like-named read-outs stand apart in the source and are kept apart here.

The test system of one series is OC. As to conditions: single agent.
For series [1], the system named is non-small-cell lung cancer, melanoma, and renal-cell cancer. As to conditions: Phase I clinical trial.
For a further series, the system named is TNBC. The note with it: single agent, previously treated TNBC.
Another series relates to PARP. The note with it: hydrogen peroxide stimulated, various cell lines.
Series [2] deals with MDA-MB-436, CAPAN-1, GRANTA-519, OVCAR3, HT29, DLD-1, patient derived Ewing's sarcoma and TNBC xenograft models. The note with it: xenograft models in mice.
Series [3] deals with cancer cell lines silenced for BRCA-1 or BRCA-2, or carrying BRCA-1 or BRCA-2 mutations.
Series [4] deals with Ewing's sarcoma, ALL, NSCLC, SCLC cell lines and tumor cell lines with homozygous inactivation of the ATM gene.

“nivolumab: PD-1 antibody (Human IgG4), Bristol-Myers Squibb / ONO”: the “objective response rate (ORR)” value in the series with OC was 15%. In addition, the clinical response entry in series [1] is reported as “complete or partial responses”.

Consider “pembrolizumab: anti-PD-1 monoclonal antibody, immunoglobulin G4/kappa isotype humanized mAb (SEQ ID NO: 1 and 2)”, for which, in the series on TNBC, the “objective response rate (ORR)” value is reported as 4.7%.

A word on the IC50: it is the concentration needed to halve the response being measured. Regarding `NC(=O)c1cccc2cn(-c3ccc([C@@H]4CCCNC4)cc3)nc12` [niraparib, (3S)-3-[4-{7-(aminocarbonyl)-2H-indazol-2-yl}phenyl]piperidine], in the series with PARP (read-out: IC50 of PARP activity in cells), the IC50 is […]. For the same compound, the IC90 in the series with PARP (read-out: inhibitory concentration at 90% of control (IC90) of PARP activity in cells) was […]. Also, in series [2], the antitumor activity entry is given as “strong antitumor activity”. In addition, the results for the cell cycle effect entry in series [3] and in series [3] (listed as Niraparib) were “cell cycle arrest in G2/M followed by apoptosis” and “arrest in the G2/M phase of the cell cycle”, respectively. The anti-proliferative activity result in series [3] (compared to wild type counterparts) was “selective anti-proliferative activity”. Also, in the series with normal human cells, the “activity on normal human cells” value is on record as “weak activity”. For the same compound, the cytotoxicity entry in series [4] is on record as “selectively cytotoxic”.
